{"source": "ChEMBL document CHEMBL4376898", "about": "“Enhanced Activity against Multidrug-Resistant Bacteria through Coapplication of an Analogue of Tachyplesin I and an Inhibitor of the QseC/B Signaling Pathway” (J Med Chem, 2020)", "key": {"Escherichia coli [1]": {"tested_on": "Escherichia coli", "experiment": "Antimicrobial activity against Escherichia coli ATCC 25923 assessed as inhibition of visible growth incubated for 18 hrs", "type": "functional"}, "Klebsiella pneumoniae [2]": {"tested_on": "Klebsiella pneumoniae", "experiment": "Antimicrobial activity against Klebsiella pneumoniae BAA 2470 assessed as inhibition of visible growth incubated for 18 hrs", "type": "functional"}, "Staphylococcus aureus [3]": {"tested_on": "Staphylococcus aureus", "experiment": "Antimicrobial activity against Staphylococcus aureus ATCC 29213 assessed as inhibition of visible growth incubated for 18 hrs", "type": "functional"}, "Staphylococcus aureus [4]": {"tested_on": "Staphylococcus aureus", "experiment": "Antimicrobial activity against Staphylococcus aureus BAA 44 assessed as inhibition of visible growth incubated for 18 hrs", "type": "functional"}, "Escherichia coli [5]": {"tested_on": "Escherichia coli", "experiment": "Antimicrobial activity against Escherichia coli K-12 assessed as inhibition of visible growth incubated for 18 hrs", "type": "functional"}, "Klebsiella pneumoniae [6]": {"tested_on": "Klebsiella pneumoniae", "experiment": "Antimicrobial activity against Klebsiella pneumoniae BAA 1144 assessed as inhibition of visible growth incubated for 18 hrs", "type": "functional"}, "Enterobacter cloacae": {"tested_on": "Enterobacter cloacae", "experiment": "Antimicrobial activity against Enterobacter cloacae BAA 1143 assessed as inhibition of visible growth incubated for 18 hrs", "type": "functional"}, "Pseudomonas aeruginosa [7]": {"tested_on": "Pseudomonas aeruginosa", "experiment": "Antimicrobial activity against Pseudomonas aeruginosa ATCC 27853 assessed as inhibition of visible growth incubated for 18 hrs", "type": "functional"}, "Enterococcus faecium [8]": {"tested_on": "Enterococcus faecium", "experiment": "Antimicrobial activity against Enterococcus […] ATCC 29212 assessed as inhibition of visible growth incubated for 18 hrs", "type": "functional"}, "Staphylococcus aureus [9]": {"tested_on": "Staphylococcus aureus", "experiment": "Antimicrobial activity against Staphylococcus aureus BAA 41 assessed as inhibition of visible growth incubated for 18 hrs", "type": "functional"}, "Pseudomonas aeruginosa [10]": {"tested_on": "Pseudomonas aeruginosa", "experiment": "Antimicrobial activity against Pseudomonas aeruginosa BAA 2108 assessed as inhibition of visible growth incubated for 18 hrs", "type": "functional"}, "Bacillus subtilis [11]": {"tested_on": "Bacillus subtilis", "experiment": "Antimicrobial activity against Bacillus subtilis 168 assessed as inhibition of visible growth incubated for 18 hrs", "type": "functional"}, "Acinetobacter baumannii [12]": {"tested_on": "Acinetobacter baumannii", "experiment": "Antimicrobial activity against Acinetobacter baumannii ATCC 19606 assessed as inhibition of visible growth incubated for 18 hrs", "type": "functional"}, "Escherichia coli [13]": {"tested_on": "Escherichia coli", "experiment": "Antimicrobial activity against Escherichia coli BAA 2469 assessed as inhibition of visible growth incubated for 18 hrs", "type": "functional"}, "[14]": {"experiment": "Stability in human plasma assessed as parent compound remaining at […] measured after 6 hrs by HPLC analysis", "type": "ADME, cell-free", "conditions": "read-out: Stability"}, "L02 [15]": {"tested_on": "L02", "experiment": "Cytotoxicity in human L02 cells assessed as reduction in cell viability at <32 ug/ml incubated for 48 hrs by resazurin dye based assay", "conditions": "l02, 48 h"}, "[16]": {"experiment": "Toxicity in human erythrocytes assessed as induction of hemolysis at 16 ug/ml incubated for 1 hr by spectrometry", "type": "cell-based, Erythrocyte", "conditions": "read-out: Activity"}, "[17]": {"experiment": "Stability in human plasma assessed as parent compound remaining at […] measured after 2 hrs by HPLC analysis", "type": "ADME, cell-free", "conditions": "read-out: Stability"}, "L02 [18]": {"tested_on": "L02", "experiment": "Cytotoxicity in human L02 cells assessed as reduction in cell viability at >64 ug/ml incubated for 48 hrs by resazurin dye based assay", "conditions": "l02, 48 h"}, "Erythrocyte": {"tested_on": "Erythrocyte", "experiment": "Toxicity in human erythrocytes assessed as induction of hemolysis at <50 ug/ml incubated for 1 hr by spectrometry", "type": "cell-based"}, "[19]": {"experiment": "Bactericidal activity against Lysobacter enzymogenes YC36 with delta qseB mutant assessed as killing of bacterial cells at 2 ug/ml relative to control", "type": "functional"}, "Shigella flexneri": {"tested_on": "Shigella flexneri", "experiment": "Bactericidal activity against Shigella flexneri ATCC 29903", "type": "functional"}, "[20]": {"experiment": "Antimicrobial activity against Lysobacter enzymogenes YC36 assessed as inhibition of visible growth measured after 7th generation exposure to compound by continuous repeated transfer assay (reference value: 4 ug/ml)", "type": "functional"}, "[21]": {"experiment": "Bactericidal activity against Lysobacter enzymogenes YC36", "type": "functional"}, "[22]": {"experiment": "Antimicrobial activity against Lysobacter enzymogenes YC36 assessed as inhibition of visible growth measured after 7th generation exposure to compound by continuous repeated transfer assay relative to before passage", "type": "functional"}, "[23]": {"experiment": "Antimicrobial activity against Lysobacter enzymogenes YC36 assessed as inhibition of visible growth measured after 7th generation exposure to compound by continuous repeated transfer assay (reference value: 8 ug/ml)", "type": "functional"}, "Escherichia coli [24]": {"tested_on": "Escherichia coli", "experiment": "Bactericidal activity against Escherichia coli K-12", "type": "functional"}, "Staphylococcus aureus [25]": {"tested_on": "Staphylococcus aureus", "experiment": "Bactericidal activity against Staphylococcus aureus ATCC 29213", "type": "functional"}, "Bacillus subtilis [26]": {"tested_on": "Bacillus subtilis", "experiment": "Bactericidal activity against Bacillus subtilis 168", "type": "functional"}, "Acinetobacter baumannii [27]": {"tested_on": "Acinetobacter baumannii", "experiment": "Bactericidal activity against Acinetobacter baumannii ATCC 19606", "type": "functional", "conditions": "ATCC 19606 = CIP 70.34 = JCM 6841"}, "Enterococcus faecium [28]": {"tested_on": "Enterococcus faecium", "experiment": "Bactericidal activity against Enterococcus […] ATCC 29212", "type": "functional"}, "[29]": {"experiment": "Bactericidal activity against Lysobacter enzymogenes YC36 with delta qseC mutant assessed as killing of bacterial cells at 2 ug/ml relative to control", "type": "functional"}, "Pseudomonas aeruginosa [30]": {"tested_on": "Pseudomonas aeruginosa", "experiment": "Bactericidal activity against Pseudomonas aeruginosa ATCC 27853", "type": "functional"}}, "data": [{"compound": "COLISTIN", "values": [{"measurement": "MIC", "setting": "Escherichia coli [1]", "result": 2, "unit": "µg/mL"}, {"measurement": "MIC", "setting": "Klebsiella pneumoniae [2]", "result": 2, "unit": "µg/mL"}, {"measurement": "MIC", "setting": "Staphylococcus aureus [3]", "result": "> 128", "unit": "µg/mL"}, {"measurement": "MIC", "setting": "Staphylococcus aureus [4]", "result": "> 128", "unit": "µg/mL"}, {"measurement": "MIC", "setting": "Escherichia coli [5]", "result": 2, "unit": "µg/mL"}, {"measurement": "MIC", "setting": "Klebsiella pneumoniae [6]", "result": 2, "unit": "µg/mL"}, {"measurement": "MIC", "setting": "Enterobacter cloacae", "result": 4, "unit": "µg/mL"}, {"measurement": "MIC", "setting": "Pseudomonas aeruginosa [7]", "result": 4, "unit": "µg/mL"}, {"measurement": "MIC", "setting": "Enterococcus faecium [8]", "result": "> 128", "unit": "µg/mL"}, {"measurement": "MIC", "setting": "Staphylococcus aureus [9]", "result": "> 128", "unit": "µg/mL"}, {"measurement": "MIC", "setting": "Pseudomonas aeruginosa [10]", "result": 4, "unit": "µg/mL"}, {"measurement": "MIC", "setting": "Bacillus subtilis [11]", "result": 16, "unit": "µg/mL"}, {"measurement": "MIC", "setting": "Acinetobacter baumannii [12]; ATCC 19606 = CIP 70.34 = JCM 6841", "result": 4, "unit": "µg/mL"}, {"measurement": "MIC", "setting": "Escherichia coli [13]", "result": 2, "unit": "µg/mL"}]}, {"compound": "CC[C@@H](C)[C@H]1NC(=O)CNC(=O)[C@@H](CCCNC(=N)N)NC(=O)[C@@H](Cc2ccc(O)cc2)NC(=O)[C@H]2CSSC[C@@H](NC1=O)C(=O)N[C@H](Cc1ccc(O)cc1)C(=O)N[C@H](CCCNC(=N)N)C(=O)N[C@H](CCCNC(=N)N)C(=O)N[C@@H](C(=O)N[C@H](CCCNC(=N)N)C(N)=O)CSSC[C@@H](NC(=O)[C@@H](Cc1c[nH]c3ccccc13)NC(=O)[C@H](N)CCCCN)C(=O)N[C@H](Cc1ccccc1)C(=O)N[C@H](CCCNC(=N)N)C(=O)N[C@H](C(C)C)C(=O)N2", "note": "[listing 1 of 2 here]", "values": [{"measurement": "remaining at 6 h", "setting": "[14]", "result": 20, "unit": "%"}, {"measurement": "Activity", "setting": "L02 [15]", "result": "Non-Toxic"}, {"measurement": "hemolysis at 1 h, 16 ug/ml", "setting": "[16]", "result": 10, "unit": "%"}, {"measurement": "remaining at 2 h", "setting": "[17]", "result": "> 80", "unit": "%"}, {"measurement": "Activity", "setting": "L02 [18]", "result": "Toxic"}, {"measurement": "Activity", "setting": "Erythrocyte", "result": "Toxic"}]}, {"compound": "CC[C@@H](C)[C@H]1NC(=O)CNC(=O)[C@@H](CCCNC(=N)N)NC(=O)[C@@H](Cc2ccc(O)cc2)NC(=O)[C@H]2CSSC[C@@H](NC1=O)C(=O)N[C@H](Cc1ccc(O)cc1)C(=O)N[C@H](CCCNC(=N)N)C(=O)N[C@H](CCCNC(=N)N)C(=O)N[C@@H](C(=O)N[C@H](CCCNC(=N)N)C(N)=O)CSSC[C@@H](NC(=O)[C@@H](Cc1c[nH]c3ccccc13)NC(=O)[C@H](N)CCCCN)C(=O)N[C@H](Cc1ccccc1)C(=O)N[C@H](CCCNC(=N)N)C(=O)N[C@H](C(C)C)C(=O)N2", "note": "[listing 2 of 2 here]", "values": [{"measurement": "Activity", "setting": "[19]", "result": "<=100%"}, {"measurement": "MIC", "setting": "Escherichia coli [1]; ATCC 25923, 18 h", "result": 8, "unit": "µg/mL"}, {"measurement": "MIC", "setting": "Klebsiella pneumoniae [2]; BAA 2470, 18 h", "result": 16, "unit": "µg/mL"}, {"measurement": "MIC", "setting": "Staphylococcus aureus [3]; ATCC 29213, 18 h", "result": 8, "unit": "µg/mL"}, {"measurement": "MIC", "setting": "Staphylococcus aureus [4]; BAA 44, 18 h", "result": 4, "unit": "µg/mL"}, {"measurement": "MIC", "setting": "Escherichia coli [5]; K-12, 18 h", "result": 8, "unit": "µg/mL"}, {"measurement": "MBC", "setting": "Shigella flexneri", "result": "16 to 64", "unit": "µg/mL"}, {"measurement": "MIC", "setting": "[20]", "result": 16, "unit": "µg/mL"}, {"measurement": "MIC", "setting": "Klebsiella pneumoniae [6]; BAA 1144, 18 h", "result": 16, "unit": "µg/mL"}, {"measurement": "MIC", "setting": "Enterobacter cloacae; BAA 1143, 18 h", "result": 8, "unit": "µg/mL"}, {"measurement": "MBC", "setting": "[21]", "result": "16 to 64", "unit": "µg/mL"}, {"measurement": "fold change (FC)", "setting": "[22]", "result": 4}, {"measurement": "MIC", "setting": "[23]", "result": 16, "unit": "µg/mL"}, {"measurement": "MIC", "setting": "Pseudomonas aeruginosa [7]; ATCC 27853, 18 h", "result": "8 to 16", "unit": "µg/mL"}, {"measurement": "MIC", "setting": "Enterococcus faecium [8]; ATCC 29212, 18 h", "result": 4, "unit": "µg/mL"}, {"measurement": "MBC", "setting": "Escherichia coli [24]", "result": "16 to 64", "unit": "µg/mL"}, {"measurement": "MBC", "setting": "Staphylococcus aureus [25]", "result": "16 to 64", "unit": "µg/mL"}, {"measurement": "MIC", "setting": "Staphylococcus aureus [9]; BAA 41, 18 h", "result": 4, "unit": "µg/mL"}, {"measurement": "MIC", "setting": "Pseudomonas aeruginosa [10]; BAA 2108, 18 h", "result": 8, "unit": "µg/mL"}, {"measurement": "MIC", "setting": "Bacillus subtilis [11]; Bacillus subtilis, 168, 18 h", "result": 4, "unit": "µg/mL"}, {"measurement": "MBC", "setting": "Bacillus subtilis [26]", "result": "16 to 64", "unit": "µg/mL"}, {"measurement": "MBC", "setting": "Acinetobacter baumannii [27]", "result": "16 to 64", "unit": "µg/mL"}, {"measurement": "MIC", "setting": "Acinetobacter baumannii [12]; ATCC 19606 = CIP 70.34 = JCM 6841, 18 h", "result": 8, "unit": "µg/mL"}, {"measurement": "MBC", "setting": "Enterococcus faecium [28]", "result": "16 to 64", "unit": "µg/mL"}, {"measurement": "MIC", "setting": "Escherichia coli [13]; BAA 2469, 18 h", "result": 8, "unit": "µg/mL"}, {"measurement": "Activity", "setting": "[29]", "result": "<=100%"}, {"measurement": "MBC", "setting": "Pseudomonas aeruginosa [30]", "result": "16 to 64", "unit": "µg/mL"}]}]}
